The values that follow come from patent US6870154B1, “Capillary mixer with adjustable reaction chamber volume for mass spectrometry” (The University of Western Ontario, priority 2004, dated 2005).

Series [1] in a line: demetalation of chlorophyll a in acidic methanol, kinetic mode ESI-MS. The following applies: HCl, quadratic fit. It counts as physicochemical. How it is done:
(§1) For demetalation experiments, syringe 1 contained 40 μM chlorophyll in methanol and syringe 2 contained HCl in methanol at concentrations ranging from 30 to 100 mM. Both syringes were advanced at 30 μL/min for a total flow rate 60 μL/min in the reaction capillary. Ubiquitin refolding studies were carried out by having syringe 1 filled with 20 μM protein in 46% water, 50% methanol, and 4% acetic acid. Syringe 2 contained water. The two syringes were advanced at 20 and 50 μL/min, respectively, for a total flow rate of 70 μL/min. Final solution conditions after mixing ere 14.3% methanol and 1.1% acetic acid.
On-Line Kinetic ESI-MS Measurements. These measurements were carried out using a custom-built continuous-flow mixing apparatus that is based on two concentric capillaries (FIG. 1).
Instrument Performance in Kinetic Mode. […]
The apparatus depicted in FIG. 1 was used for monitoring the kinetics of chlorophyll demetalation in methanol solution for acid concentrations ranging from 15 to 50 mM. […] Nevertheless, it is clear that the temporal resolution of our novel mixing device exceeds that of other on-line ESI-MS techniques, which so far allowed rate constants up to ˜25 s^−1 to be measured.^16

Series [2] is described as follows: demetalation of chlorophyll a in acidic methanol, optical stopped-flow spectroscopy. Type of series: physicochemical. The following applies: 664 nm, quadratic fit. How it is done:
(§2) Optical Stopped-Flow Measurements. These measurements were performed on an SFM-4 instrument (Bio-Logic, Claix, France), using an observation wavelength of 664 nm for monitoring the demetalation of chlorophyll. The two stepper motor-driven syringes used were advanced at 3.5 mL/s each, for an instrument dead time of 3.3 ms. All experiments were carried out at room temperature (22±1° C.).
Instrument Performance in Kinetic Mode. The demetalation of chlorophyll a in acidic solution is a well-characterized process, during which the central magnesium of the porphyrin is displaced by two protons.^40-42 This reaction represents a convenient test system, because it allows kinetic measurements by ESI-MS and by standard optical stopped-flow absorption spectroscopy. When studied under pseudo-first-order conditions, the rate constant of the reaction is given by kobs=k[H^+]^2. The intrinsic rate constant k in this expression is known to be strongly solvent-dependent.^41, 42

A further series has as its target T1, α-chymotrypsin (Bos taurus, UniProt P00766).
T1 construct: Peaks labeled with α and δ′ correspond to α- and δ′-chymotrypsin, respectively; purchased Sigma (St. Louis, Mo.)
Kind of series: pre-steady-state hydrolysis of p-NPA by chymotrypsin, on-line kinetic ESI-MS. It counts as biochemical. As to conditions: fit of kobs to Equation 12, pH 7.8, 20% methanol, 22 °C. The source says: (§3) Chymotrypsin is a member of the serine protease family. ^86-88 Ser195 represents the reactive nucleophile in the active site of this enzyme. Although the physiological role of chymotrypsin is to serve as an endopeptidase, it also catalyzes the hydrolysis of esters, including numerous synthetic substrate analogs. […] Subsequently, Ser195 forms a covalent bond with the carbonyl carbon of the substrate, thus releasing the first hydrolysis product P1. The rate constant of this acylation step is denoted as k2. The subsequent de-acylation has a rate constant of k3, and it leads to regeneration of the free enzyme by hydrolysis of the Ser195-ester bond, through release of the second hydrolysis product P2. For conditions where S is present in large excess, it can be shown that the concentration of P1 as a function of time t in the pre-steady-state regime is given by Equation 9^58, 59: [P1](t)=C1(1−exp(−kobst))+C2t (9) and the concentration-time profile of the covalent EP2 complex can be expressed as Equation 10: [EP2](t)=C3(1−exp(−kobst)) (10). Consequently, the sum of the concentrations of free enzyme and ES complex are given by Equation 11: ([Efree]+[ES](t)=C4exp(−kobst)+C5 (11). C1, . . . , C5 in these expressions are constants, and kobs is given by Equation 12: [formula] where [S] is the substrate concentration. Measurements of kobs as a function of substrate concentration allow the determination of the parameters k2, k3, and Kd in Scheme 8.
(§4) On-line kinetic ESI-MS experiments. ESI-MS-based kinetic experiments were carried out on a custom built continuous flow mixing apparatus described in FIG. 2. Briefly, this setup consists of two concentric capillaries, that are connected to sample injection syringes. Reactions are initiated by mixing of two solutions at the outlet of the inner capillary. The reaction time is determined by the solution flow rate, and by the distance between the mixing region and the end of the outer capillary. For experiments in kinetic mode, the inner capillary is steadily withdrawn from the end of the outer capillary, while the mass spectrometer is set to monitor selected m/z values, corresponding to specific solution-phase species, as a function of time. In spectral mode, the inner capillary is set at specific distances from the end of the outer capillary, such that entire mass spectra can be obtained for selected reaction times.
(§5) For the experiments described here, both reactant solutions were introduced into the apparatus at 20 μL/min using syringe pumps (Harvard Apparatus, Saint Laurent, QC) for a total flow rate of 40 μL/min after the mixer. […]

The next series has as its target T2, δ′-chymotrypsin (Bos taurus, UniProt P00766).
T2 construct: Peaks labeled with α and δ′ correspond to α- and δ′-chymotrypsin, respectively; purchased Sigma (St. Louis, Mo.)
The description is as above. The following applies: fit of kobs to Equation 12, pH 7.8, 20% methanol, 22 °C. Type of series: biochemical.
Text: as §3, §4, §5

Series [3] deals with T3, chymotrypsin (a mixture of the α form and δ′ forms) (Bos taurus, UniProt P00766).
T3 construct: Chymotrypsin (a mixture of the α form and δ′ forms); purchased Sigma (St. Louis, Mo.)
Kind of series: p-NPA hydrolysis by optical stopped-flow spectroscopy (release of p-NP). As to conditions: weighted average of α and δ′-chymotrypsin. Type of series: biochemical. The procedure: as §2
Enzymatic reactions. The limited solubility of p-NPA in purely aqueous solutions necessitated the use of 20% (v/v) methanol in the reaction mixture. […] These solutions were mixed in a 1:1 ratio with 32 μM chymotrypsin in water for a final pH of 7.8, which corresponds to the pH optimum of the enzyme. […] Experiments on bradykinin were carried out in an analogous manner, but in purely aqueous solution, and by using 20% (v/v) acetic acid in water as makeup solvent. […] Substrate concentrations given below represent the values in the reaction mixture, i.e., after the first mixing step. […]
Measurements of kobs as a function of substrate concentration were also carried out by stopped-flow spectroscopy, using the release of the yellow p-NP moiety as optical probe. In contrast to the ESI-MS experiments, these optical studies cannot discern the two forms of the enzyme, and therefore the measured data represent a weighted average of the substrate conversion caused by a and δ′-chymotrypsin. […]

The target of another series is T4, chymotrypsin (Bos taurus, UniProt P00766).
T4 construct: Chymotrypsin (a mixture of the α form and δ′ forms); purchased Sigma (St. Louis, Mo.)
As to conditions: previously reported, cited from earlier work.

Series [4] in a line: refolding of ubiquitin from the A state, kinetic mode ESI-MS. How it is done:
as §1
The A state was populated by exposing the protein to 50% methanol and 4% acetic acid; refolding was initiated by mixing with an excess volume of water. ESI mass spectra of ubiquitin for different times after initiation of refolding are depicted in FIG. 7. […] This spectrum is practically indistinguishable from that of the protein prior to initiation of refolding (data not shown) and very similar to ubiquitin A state spectra that have been published previously.^14, 51 As refolding proceeds, the relative abundance of highly charged protein ions decreases and that of the […] and 7+ ions increases (FIGS. 7B,C). The final spectrum was recorded off-line 5 min after initiation of refolding in a manual mixing experiment.
The diffusion coefficient of ubiquitin can be estimated to be around D=1×10^−10 m^2/s.^52 According to condition 7, this implies that diffusion effects on the observed kinetics are negligible in an experimental time window up to τ≈2 s. The data can therefore be fitted based on eq 5 (solid lines in FIG. 8). C(τ) expressions for the 13+ and 12+ions were generated by assuming the model function C(t)=a1 exp(−kobst)+a0, whereas the analysis of the 8+ and 7+ ions was based on C(t)=b1(1−exp(−kobst))+b0. […] Instead, the kinetic profiles level off at ˜20% of their initial values. This effect can be attributed to a subpopulation of slow-folding ubiquitin molecules that contain non-native cis-proline isomers.^53 Proline isomerization, taking place on the order of tens of seconds, 54 is the rate-limiting step for the refolding of this subpopulation. […] Processes occurring on such a slow time scale are beyond the range accessible by our rapid mixing setup.

[5] abbreviates: read-out: dissociation constant Kd.
Where [6] appears, read: much higher buffer concentrations.

Turning to `C=Cc1c(C)c2cc3nc(c4c5[n-]c(cc6nc(cc1[n-]2)C(C)=C6CC)c(C)c5C(=O)[C@@H]4C(=O)OC)[C@@H](CCC(=O)OC/C=C(\C)CCC[C@H](C)CCC[C@H](C)CCCC(C)C)[C@@H]3C.[Mg+2]` [chlorophyll a, Chlorophyll a], the “intrinsic rate constant k of demetalation (kobs=k[H+]^2)” value in series [1] turned out to be 0.048±0.002 mM^−2s^−1. Moreover, the “intrinsic rate constant k of demetalation” value in series [2] is given as 0.050±0.001 mM^−2 s^−1.

In general, Kd refers to a measure of binding affinity in units of concentration. As for `CC(=O)Oc1ccc([N+](=O)[O-])cc1` [p-NPA, para-nitrophenyl acetate], the “k2 (acylation rate constant)” value at α-chymotrypsin was determined as 3.2 ± 0.3 s⁻¹; on δ′-chymotrypsin, 3.7 ± 0.3 s⁻¹. Further, the Kd on α-chymotrypsin (setting [5]) was 1400 ± 200 µM; at δ′-chymotrypsin (setting [5]), 1700 ± 200 µM; in series [3], 1600 ± 100 µM; on chymotrypsin (setting [6]), 7000 µM. For the same compound, the k2 in series [3] was 3.6 ± 0.2 s⁻¹; at chymotrypsin (setting [6]), 3 s⁻¹. The k3 on chymotrypsin is 0.03 s⁻¹.

For ubiquitin, the refolding kobs in series [4] (8+ ion, 14.3% methanol, 1.1% acetic acid) amounted to 5.3 s⁻¹; in series [4] (9+ ion), 5.3 s⁻¹; in series [4] (12+ ion), 5.2 s⁻¹; in series [4] (13+ ion), 5.1 s⁻¹. The “refolding kobs, average value” in series [4] (average of the four fits) is 5.2 s⁻¹.
